Laboratory results published in BindingDB's records for doi:10.1016/j.bioorg.2010.11.002 (University of Catania, 2011).
pIC50: −log10 of the molar value.

Legend:
Collagenase 3 = Collagenase 3 (Homo sapiens, UniProt P45452); assay: Fluorimetric Assay; conditions: pH 7; 25 °C
Stromelysin-1 = Stromelysin-1 (Homo sapiens, UniProt P08254); assay: Fluorimetric Assay; conditions: pH 7; 25 °C
Chain of Stromelysin-1 (P08254 whole entry): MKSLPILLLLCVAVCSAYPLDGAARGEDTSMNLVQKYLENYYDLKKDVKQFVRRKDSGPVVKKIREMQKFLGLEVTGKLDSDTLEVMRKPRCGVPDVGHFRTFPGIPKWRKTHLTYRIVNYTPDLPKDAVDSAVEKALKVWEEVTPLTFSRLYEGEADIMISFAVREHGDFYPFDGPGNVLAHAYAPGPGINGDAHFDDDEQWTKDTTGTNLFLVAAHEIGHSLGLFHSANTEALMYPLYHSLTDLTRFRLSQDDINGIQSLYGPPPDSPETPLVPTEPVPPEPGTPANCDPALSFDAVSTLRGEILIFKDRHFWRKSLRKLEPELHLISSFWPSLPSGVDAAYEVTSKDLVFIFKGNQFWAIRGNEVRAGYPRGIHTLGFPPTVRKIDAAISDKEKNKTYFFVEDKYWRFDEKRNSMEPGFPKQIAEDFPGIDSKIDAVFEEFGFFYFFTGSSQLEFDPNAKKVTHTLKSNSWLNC

Row | SMILES | pIC50 (Collagenase 3) | pIC50 (Stromelysin-1)
1 | O=C1N/C(=N/c2nsc3ccccc23)S/C1=C/c1ccccc1 [2-(benzo[d]isothiazol-3-ylimino)-5-benzylidenethiazolidin-4-one, 2b] | 4.49 | –
2 | Oc1csc(Nc2nc3ccccc3s2)n1 [2-(benzo[d]-thiazol-2-ylimino)-thiazolidin-4-one, 1a] | – | 4.44
